Values of other authors in patent publication US12285410B2, “Combination comprising HDAC inhibitor and CD137 agonist for cancer therapy” (4SC AG, priority 2018, dated 2025).

Columns and labels:
[1] = test system: different types of blood cancer; details: 24 heavily pre-treated patients

Cn1cc(-c2ccc(S(=O)(=O)n3ccc(/C=C/C(=O)Nc4ccccc4N)c3)cc2)cn1 [Compound 4SC-202, (E)-N-(2-aminophenyl)-3-(1-((4-(1-methyl-1H-pyrazol-4-yl)phenyl)sulfonyl)-1H-pyrrol-3-yl)acrylamide]
complete remission (one patient), duration [1]: 28 months
disease control, share of patients [1]: 83%
long-term stabilization, share of patients [1]: 50%
partial responder (one patient), duration [1]: 8 months
tolerability [1]: well tolerated with few and/or manageable adverse events

Urelumab
immunologic and pharmacodynamic activity (at 0.1 mg/kg every 3 weeks): immunologic and pharmacodynamic activity demonstrated by the induction of IFN-inducible genes and cytokines
tolerability (at 0.1 mg/kg every 3 weeks): relatively well tolerated
treatment-related AE: fatigue (at 0.1 mg/kg every 3 weeks): 16%
treatment-related AE: nausea (at 0.1 mg/kg every 3 weeks): 13%
maximum tolerated dose (every 3 weeks): 0.1 mg/kg
